According to PubChem BioAssay AID602236 (The Scripps Research Institute Molecular Screening Center, 2012):
The source made the active and inactive calls.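 Rule for the calls: active = IC50 of 10 µM or lower; inactive = IC50 above 10 µM.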

Each molecule was assayed on HEK-293 Gal4-VP16 UAS luciferase reporter, luminescence (assay: VP16 transactivation inhibitor potency, dose response, counter-screen for SRC1 inhibitor project, cell-based, luminescence, high throughput, SRC1 series (AID 602236);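 note: inhibitor potency where hits lower luciferase light from Gal4-VP16 transactivation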).

Compound	IC50
COc1cc(/C=C2\SC(N)=NC2=O)cc(OC)c1	8.33 µM
COc1ccccc1NS(=O)(=O)c1cccc(NC(=O)c2cncc(Br)c2)c1	12 µM (inactive)
Cc1cc(C)nc(SCc2ccc(C(=O)N/N=C/c3cccc(O)c3O)cc2)n1	5.29 µM
COc1ccc(C(O)(C(C)C)C(CN2CCOCC2)c2ccc(Cl)cc2)cc1 (stereo unspecified)	20 µM (inactive)
CC(C)(C)c1cc(C(=O)N/N=C/c2ccc(O)cc2)n(-c2ccccc2)n1	21.9 µM (inactive)
CC(C)n1c(SCC(=O)Nc2nc3c(s2)CCCC3)nc2c1c(=O)n(C)c(=O)n2C	13.9 µM (inactive)
O=C(CCl)N1N=C(c2ccco2)CC1c1ccco1 (stereo unspecified)	> 12 µM (inactive)
COc1ccc(Nc2ncnc3ccc(Br)cc23)c(OC)c1	15.9 µM (inactive)
CC(=O)c1cc2c(C)cc(=O)oc2cc1O	29 µM (inactive)
CS(=O)(=O)Nc1cccc(NC(=O)C2Cc3c(-c4ccco4)ccnc3O2)c1 (stereo unspecified)	19.3 µM (inactive)
S=C(c1ccc(-c2ccccc2)cc1)N1CCOCC1	24 µM (inactive)
Cc1ccc(OCC(=O)c2cc(C)n(-c3ccccc3)c2C)c([N+](=O)[O-])n1	12.2 µM (inactive)
COc1ccc(-n2cnc(N)c2C(=O)c2cccc([N+](=O)[O-])c2)cc1	15.7 µM (inactive)
COc1ccc2c(c1)-c1c(ssc1=S)C(C)(C)N2C(=O)CSC1=NCCS1	20.6 µM (inactive)
Cc1ccc2nc(C(F)(F)F)c(C#N)c(N)c2c1	10.4 µM (inactive)
O=c1ccc2c(ccc3ncccc32)o1	18.1 µM (inactive)
Cc1nc(N2CCC(C(N)=O)CC2)c2c(-c3cccs3)csc2n1	11.6 µM (inactive)
CN(C)c1ccc(/C=C/c2nc3ccccc3s2)cc1	19.8 µM (inactive)
Cc1ccc(C(=O)Nc2sc(C)c(-c3ccccc3)c2C(N)=O)cc1[N+](=O)[O-]	> 35.9 µM (inactive)
Cn1nc(C(F)(F)F)c(C#N)c1N1CCN(c2ccc(F)cc2)CC1	7.86 µM
NC(=O)c1cc(Sc2ccccc2)nc2ccccc12	11.6 µM (inactive)
N#Cc1cc2ccncc2c2ccccc12	6.89 µM
CCCCC(=O)Nc1cccn2ncnc12	> 35.9 µM (inactive)
c1cc2c(cn1)cnc1cscc12	11.8 µM (inactive)
COc1cc(C(=O)NC(=S)NNC(=O)c2cnccn2)cc(OC)c1OC	11.9 µM (inactive)
Cn1nc(C(F)(F)F)c(C#N)c1N1CCN(c2ccccc2)CC1	6.34 µM

Compound	IC50
COc1ccc(-c2ncncc2-c2ccccc2)c(O)c1	19.4 µM (inactive)
Cn1c(=O)c2[nH]c(COc3ccc(C(C)(C)C)cc3)nc2n(C)c1=O	8.31 µM
Cc1ccc(S(=O)(=O)N2[C@@H](c3ccc(C(C)(C)C)cc3)C(C(=O)O)=CC[C@H]2c2ccc(Cl)cc2)cc1	16 µM (inactive)
CC(=O)NC(c1cc(Cl)c2cccnc2c1O)C(C)C (stereo unspecified)	8.06 µM
O=C(CSc1nc(-c2cccs2)cc(C(F)(F)F)n1)Nc1cc(OCC(F)(F)C(F)F)cc([N+](=O)[O-])c1	21.9 µM (inactive)
O=C(Nc1nc(-c2ccccn2)cs1)c1cccc(S(=O)(=O)N2CCOCC2)c1	8.59 µM
CC(=O)N1CCN(c2ccc(Oc3ncnc4sccc34)cc2)CC1	9.64 µM
COc1cccc(CNc2ncnc3ccc(-c4c(C)noc4C)cc23)c1	> 35.9 µM (inactive)
Cc1ccc2occ(/C=N/NC(=O)[C@@H](N)Cc3ccccc3)c(=O)c2c1	12.7 µM (inactive)
COc1cccc(C2=CC(=O)CC(C)(C)C2)c1	24 µM (inactive)
COc1cc(OC)c2cc(C(=O)N/N=C/c3cccc(OC)c3O)[nH]c2c1	9.42 µM
CC1CC(C)C(=NNC(N)=O)C(C(O)CC2CCC(=O)NC2=O)C1 (stereo unspecified)	12.2 µM (inactive)
Cc1nc2sc(C(N)=O)c(N)c2c(C)c1CC(=O)c1ccccc1	> 35.9 µM (inactive)
CCN1CCN(C(=S)c2ccc(-c3ccccc3)cc2)CC1	29.5 µM (inactive)
CCOc1ccc(-c2noc(CCC(=O)O)n2)cc1	> 35.9 µM (inactive)
CN(C)C=Nc1c(C(=O)c2ccccc2)sc2nccc(N(C)C)c12	> 35.9 µM (inactive)
COc1ccc(NC(=O)CN(C)C(=O)C2(c3ccccc3)CCCC2)cc1	36.3 µM (inactive)
O=C(O)c1ccccc1C(=O)Nc1ccc(Oc2cccc3ccccc23)cc1	> 35.9 µM (inactive)
O=C(CCl)N(c1ccccc1)C1CCS(=O)(=O)C1 (stereo unspecified)	16.2 µM (inactive)
Cc1ccc(S(=O)(=O)Nc2c(NC3CCCCC3)c3ccccc3oc2=O)c(C)c1	12.8 µM (inactive)
c1nc2sc3c(c2c2nnnn12)CCCC3	13.3 µM (inactive)
Cc1c(CC(=O)NCCCC(=O)O)c(=O)oc2cc3c(cc12)CCC(C)(C)O3	18.4 µM (inactive)
COc1ccc(-c2cc(=O)oc3c(C)c(O)c(CN(C)C)cc23)cc1	15 µM (inactive)
O=C(OC(c1ccccc1)c1nccc2ccccc12)c1ccccc1 (stereo unspecified)	23.9 µM (inactive)
Cc1ccc(/C=C2\SC(=S)N(CCCC(=O)NC3CCCC3)C2=O)cc1	5.37 µM
CNc1cccnc1C=NNC(N)=S	18.4 µM (inactive)

Compound	IC50
CC(=O)NC(c1cc(Cl)c2cccnc2c1O)C1CC1 (stereo unspecified)	9.3 µM
CCn1ccnc1CN(C)Cc1cn[nH]c1-c1ccc(F)cc1F	11 µM (inactive)
Nc1ncccc1C(=O)OCC(=O)N1CCN(S(=O)(=O)c2ccc(Cl)cc2)CC1	12.8 µM (inactive)
Cc1ccc(OCC(=O)c2cc(C)n(Cc3cccs3)c2C)c([N+](=O)[O-])n1	12.1 µM (inactive)
COc1ccc(CNc2ncc(-c3ccc(F)cc3)n2C)c2ccccc12	> 35.9 µM (inactive)
CCCS(=O)(=O)c1c(S(=O)(=O)CCC)c2c(C)cccn2c1C(=O)N/N=C/c1cc(O)cc(O)c1	5 µM
O=C(Nc1cccc2c1CCCC2)c1cc([N+](=O)[O-])ccc1Cl	9.3 µM
c1ccc(-c2csc3ncnc(NCCN4CCOCC4)c23)cc1	18.7 µM (inactive)
Cc1c2ccncc2cc2c1[nH]c1ccccc12	6.48 µM
CCOc1ccc(/C=C2\SC(=S)N(CCC(=O)O)C2=O)cc1	> 35.9 µM (inactive)
Cc1nn(CC(=O)N2CCN(c3cccc(C(F)(F)F)c3)CC2)c(=O)c2cccn12	17.6 µM (inactive)
CCOc1cccc(/C=N/NC(=O)c2cccnc2)c1O	8.44 µM
CCn1c(Oc2cccc(Br)c2)nc2c1c(=O)n(C)c(=O)n2C	25.8 µM (inactive)
COc1cc([C@@H]2c3cc4c(cc3[C@@H](O[C@@H]3O[C@@H]5CO[C@@H](C)O[C@H]5[C@H](O)[C@H]3O)[C@H]3COC(=O)[C@H]23)OCO4)cc(OC)c1O	> 35.9 µM (inactive)
Cc1ccc(S(=O)(=O)NC(CC(C)C)C(=O)NCC(c2ccco2)N2CCCCC2)cc1 (stereo unspecified)	> 35.9 µM (inactive)
O=C(Nc1cccc(C(F)(F)F)c1)Nc1nnc([C@@H]2C[C@H](O)[C@@H](CO)O2)s1	7.89 µM
CCC(C)(C)n1nnnc1CN1CCC(n2c(C)nc3cc(C(F)(F)F)ccc32)CC1	> 35.9 µM (inactive)
CN(C)C(=O)c1cccc(COc2ccc(N3C(N)=NC(N)=NC3(C)C)cc2Cl)c1	> 35.8 µM (inactive)
CCc1ccc(-c2nc(CSCC(=O)NCc3ccco3)c(C)o2)cc1	21.8 µM (inactive)
COC(CN(C(=O)CCl)C(C(=O)NC1CCCCC1)c1ccccc1C)OC (stereo unspecified)	8.47 µM
O=C(NC1CCCCC1)C(c1cccnc1)N(C(=O)CCl)c1cccc(Cl)c1 (stereo unspecified)	4.71 µM
COc1cc2c(cc1OC)C(NC(=O)C(F)(F)F)CNC2=O (stereo unspecified)	10.8 µM (inactive)
CCOc1cc(C(N)=O)cc(Br)c1OC	17.1 µM (inactive)
CCN(Cc1ccncc1)C(=O)CC1C(=O)NCCN1Cc1ccc(F)c(F)c1 (stereo unspecified)	15.8 µM (inactive)
COC(=O)c1sc2cnccc2c1N	> 35.9 µM (inactive)
COc1ccc(/C=C2\CC/C(=C\c3ccc(OC)c(OC)c3)C2=O)cc1OC	5.39 µM

Compound	IC50
CC(C)Cn1c(N)c(C(=O)COC(=O)c2cc3ccccc3cc2O)c(=O)n(C)c1=O	29.3 µM (inactive)
COC(=O)N(NC(=O)C(O)(CCC(C)C)CCC(C)C)c1ccccc1	> 35.9 µM (inactive)
CCOc1cccc(/C=N/NC(=O)c2cc(C3CC3)[nH]n2)c1O	11.2 µM (inactive)
Cc1ccc(NC(=O)C2CCN(c3ncnc4sc(C)c(C)c34)CC2)cc1S(=O)(=O)N(C)C	13.4 µM (inactive)
Nc1ccc(-c2cc3ccccc3oc2=O)cc1	> 35.8 µM (inactive)
C=CCOc1ccc(/C=C2\SC(=S)N(CCC(=O)O)C2=O)cc1	> 35.9 µM (inactive)
CC1(C)Cc2c(ccc3ccccc23)C(=O)N1	8.4 µM
O=C(CCCc1nc(-c2ccccc2Cl)no1)NC1CCCC1	13.6 µM (inactive)
COc1cc2c(cc1OC)C(C)N(C(=O)c1cccc([N+](=O)[O-])c1)CC2 (stereo unspecified)	8.73 µM
Cc1ccc(O)c(C(=O)c2cnn(C(=O)COc3ccc(Cl)cc3)c2)c1	27.6 µM (inactive)
O=C1CCC/C1=c1\s/c(=C/c2cccnc2)c(=O)n1-c1ccccc1	11.2 µM (inactive)
COc1cc(C2c3cc4c(cc3C(OC3OC5COC(c6cccs6)OC5C(O)C3O)C3COC(=O)C23)OCO4)cc(OC)c1O (stereo unspecified)	> 35.9 µM (inactive)
Cc1cccc(C)c1-c1ccc(CN2C(CC(C)C)C(=O)N(Cc3cn(CC4CCCCC4)nn3)CCS2(=O)=O)cc1 (stereo unspecified)	16.6 µM (inactive)
O=C(O)CN1C(=O)/C(=C\c2ccccc2OCc2ccc(Cl)cc2Cl)SC1=S	> 35.9 µM (inactive)
Cc1ccccc1C(=O)/C(C#N)=N/Nc1c(C)n(C)n(-c2ccccc2)c1=O	5.6 µM
O=C(CCl)NC(Cc1ccccc1)c1ccccc1 (stereo unspecified)	20.8 µM (inactive)
Oc1ccc(C=NNc2ccccn2)c(O)c1	> 35.9 µM (inactive)
Cc1ccc(NC(=O)CCC(=O)N/N=C/c2ccc(O)cc2O)cc1	23 µM (inactive)
N#Cc1c2ccc(O)cc2n2ccccc12	> 35.9 µM (inactive)
CC[C@@]1(O)C(=O)OCc2c1cc1n(c2=O)Cc2cc3c(NC(=O)CN)cccc3nc2-1	> 35.9 µM (inactive)
CCCCN(CCCC)c1ncnc2nc[nH]c12	6.97 µM
Nc1nc(CCl)nc(Nc2cccc3ccccc23)n1	11.1 µM (inactive)
CNc1ncnc(Sc2nc(N)nc3nc[nH]c23)c1[N+](=O)[O-]	5.79 µM
